Measured values: ChEMBL document CHEMBL4138317, “Deciphering the Inhibition of the Neuronal Calcium Sensor 1 and the Guanine Exchange Factor Ric8a with a Small Phenothiazine Molecule for the Rational Generation of Therapeutic Synapse Function Regulators” (J Med Chem, 2018)
Active and inactive are the calls of the source. The calls are words filed in the database; no cut-off is given here.

Key:
[1] = molecular target: Neuronal calcium sensor 1/Synembryn-A (Homo sapiens) (UniProt P62166+Q9NPQ8); test: Inhibition of human NCS1 and V5-tagged Ric8a interaction expressed in HEK293 cells at 20 uM after 24 hrs by Western blot analysis relative to control; format: cell-based
Frequenin-2 = molecular target: T1, Frequenin-2 (Drosophila melanogaster, UniProt Q9VWX8); test: Binding affinity to drosophila NCS1 expressed in Escherichia coli BL21 (DE3) by fluorescence emission assay; details: read-out: Kd(app)
T1 sequence (Q9VWX8 whole entry): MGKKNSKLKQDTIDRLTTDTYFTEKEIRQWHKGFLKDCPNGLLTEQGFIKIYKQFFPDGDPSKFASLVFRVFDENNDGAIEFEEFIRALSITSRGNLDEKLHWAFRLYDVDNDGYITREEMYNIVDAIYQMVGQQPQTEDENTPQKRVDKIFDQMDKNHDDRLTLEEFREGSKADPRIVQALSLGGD

[2] = molecular target: Neuronal calcium sensor 1 (Homo sapiens, UniProt P62166); test: Binding affinity to human NCS1 expressed in Escherichia coli BL21 Star (DE3) by fluorescence emission assay; details: read-out: Kd(app)
[3] = molecular target: T2, Frequenin-2 (Drosophila melanogaster) (UniProt Q9VWX8); test: Binding affinity to drosophila NCS1 expressed in Escherichia coli BL21 (DE3) by STD-NMR method
T2 sequence (whole entry): T1 sequence (Q9VWX8 whole entry)

Neuronal calcium sensor 1/Synembryn-A (Homo sapiens), sequence (P62166 whole entry, looked up): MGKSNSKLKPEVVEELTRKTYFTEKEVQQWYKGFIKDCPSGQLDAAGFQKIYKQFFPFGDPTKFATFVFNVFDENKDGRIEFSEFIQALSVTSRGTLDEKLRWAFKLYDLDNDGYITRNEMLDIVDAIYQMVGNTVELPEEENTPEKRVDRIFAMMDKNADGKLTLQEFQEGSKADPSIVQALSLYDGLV
Neuronal calcium sensor 1/Synembryn-A (Homo sapiens), sequence (Q9NPQ8 whole entry, looked up): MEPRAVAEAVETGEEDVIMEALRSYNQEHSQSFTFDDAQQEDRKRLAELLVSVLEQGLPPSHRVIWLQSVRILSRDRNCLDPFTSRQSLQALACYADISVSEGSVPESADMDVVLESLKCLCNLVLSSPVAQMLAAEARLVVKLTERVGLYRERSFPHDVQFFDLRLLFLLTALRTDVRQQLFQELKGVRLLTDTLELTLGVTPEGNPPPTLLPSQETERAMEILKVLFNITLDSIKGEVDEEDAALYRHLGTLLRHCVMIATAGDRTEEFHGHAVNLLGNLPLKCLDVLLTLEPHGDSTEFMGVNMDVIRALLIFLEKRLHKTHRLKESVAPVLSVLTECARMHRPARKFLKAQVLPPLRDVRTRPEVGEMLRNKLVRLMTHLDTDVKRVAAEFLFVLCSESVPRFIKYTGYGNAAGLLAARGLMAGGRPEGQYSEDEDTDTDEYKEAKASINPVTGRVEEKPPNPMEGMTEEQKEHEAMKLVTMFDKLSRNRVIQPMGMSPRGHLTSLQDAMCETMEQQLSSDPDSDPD
Neuronal calcium sensor 1, sequence (P62166 2-190 limits assumed): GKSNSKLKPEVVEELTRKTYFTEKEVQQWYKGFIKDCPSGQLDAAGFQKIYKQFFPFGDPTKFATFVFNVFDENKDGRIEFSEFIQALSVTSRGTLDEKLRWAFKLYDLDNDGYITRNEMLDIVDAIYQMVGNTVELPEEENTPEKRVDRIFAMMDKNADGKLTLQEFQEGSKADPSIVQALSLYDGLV

**Q.** For O=C(CC(c1ccccc1)c1ccccc1)Nc1nc2ccccc2s1, which inhibition [1] is on record?
**A.** 50%

**Q.** And the Kd (Frequenin-2)?
**A.** 1.13 µM

**Q.** What about the Kd [2] of the same molecule?
**A.** 1.25 µM

**Q.** How did the inhibition [1] turn out when COc1ccccc1C(=O)Nc1nc2cc(C(F)(F)F)ccc2s1 was run?
**A.** 50%

**Q.** And the Kd [2]?
**A.** 11.5 µM

**Q.** Which Activity [3] does the source give for O=C(CN1CCCCC1)NN1c2ccccc2Sc2ccccc21 here?
**A.** Active

**Q.** And the Kd (Frequenin-2)?
**A.** 71 µM

**Q.** For Cc1sc(NC(=O)CNC(=O)c2ccc(F)cc2)nc1-c1ccccc1, which inhibition [1] is on record?
**A.** 50%
